Measurements published in article PMC8037406, “Symbiotic NCR Peptide Fragments Affect the Viability, Morphology and Biofilm Formation of Candida Species” (International Journal of Molecular Sciences, 2021).
Read-outs that look alike come from different tables or passages of the source. Where a SMILES comes first, the peptide text is derived from it. Bridges are numbered along the chain shown (N, C = ends).

Experiments:
Candida cells = assay: Fungicide effect, spotting of treated cells on solid YPD medium; type: cell-based, Candida species; settings: 1.56–25 µM, 24 h treatment, dilutions spotted on solid YPD medium, 48 h, 30 °C
Experimental: To determine whether the inhibitory effect of the peptides is generated by fungistatic or fungicide action, the Candida cells were treated with the peptides in the same concentration range (1.56–25 µM) as in the growth inhibition assay. After 24 h 5 µL sample from the untreated control cells and from the peptide treated cells was added to 95 µL water and diluted further 10- and 100-fold. From each dilution, 5 µL was placed on solid medium and the growth of the control and peptide treated cells was compared after 48 h incubation at 30 °C. This assay confirmed that all the effective peptides, NCR335N1–19, NCR335N7–21, NCR335C1–33, NCR335C13–33, NCR335C17–33, NCR169C17–38, NCR169C17–38ox, NCR169C17–38W10,20/A provoked growth inhibition through fungicidal actions (Figure A2). The fungicide concentrations, required for the complete elimination of the Candida cells, were either equal to or twice higher than the minimum inhibitory concentrations presented in Table 2.
The same initial experimental setting was used to determine the fungicide effect of the peptides. Five µL samples were taken from the cultures after 24 h and were added to 95 µL sterile distilled water, and diluted to 10- and 100-fold (indicated as 10^4, 10^3 and 10^2 based on the cell number of the control culture in Figure A2). Five µL from each dilution were placed on solid YPD medium and the growth of the strains was detected after 48 h incubation at 30 °C.

Candida auris 0381 = assay: microbe, parasite or virus in culture; type: cell-based; settings: micro-dilution, YNB medium, 4 × 10^4 cell/mL, 48 h, 30 °C, OD 620 nm; MIC = growth inhibition ≥90%; peptides 25 to 1.56 µM, fluconazole 200 to 0.78 µM; three biological repeats in triplicates; also: key: -: no growth inhibition was observed
Experimental: (§1) The antifungal activity of all the 14 peptides was tested against the following opportunistic human pathogen Candida species and strains: C. albicans strains ATCC 10231, SC 5314 and SZMC 1458, C. auris 0381, C. glabrata CBS 138, C. parapsilosis CBS 604 and C. tropicalis CBS 94.
(§2) All the Candida strains (Table 4) were grown overnight in YPD medium (1% pepton, 1% dextrose, 0.5% yeast extract) at 30 °C in water bath shaker prior to each experiments. The cells were harvested by centrifugation (5 min, 3000× g) washed twice with sterile distilled water and suspended in 5-fold diluted Difco Yeast Nitrogen Base w/o Amino Acids medium (Becton, Dickinson and Company, Sparks, MD, USA) supplemented with 1% dextrose, referred to as YNB medium in the text. Cells were counted in Bürker chamber and diluted to the proper concentration.
(§3) The growth inhibition of the peptides listed in Table 1 was tested in 96-well microtiter plates on Candida strains. The minimal inhibitory concentration (MIC) was determined with the micro-dilution method by adding 5 µL serially two-fold-diluted peptide solution to 95 µL of cell suspension (4 × 10^4 cell/mL) in YNB medium. After 48 h of incubation at 30 °C the optical density of the cultures was measured at 620 nm in SPECTROstar Nano plate reader (BMG LabTech, Offenburg, Germany). Minimal inhibitory concentration was defined as growth inhibition ≥90% compared to 100% growth of the untreated control. The experiments were carried out in three biological repeats always in triplicates.

[1] = tested on: Candida parapsilosis CBS 604; assay: microbe, parasite or virus in culture; type: cell-based; settings: micro-dilution, YNB medium, 4 × 10^4 cell/mL, 48 h, 30 °C, OD 620 nm; MIC = growth inhibition ≥90%; peptides 25 to 1.56 µM, fluconazole 200 to 0.78 µM; three biological repeats in triplicates; also: key: -: no growth inhibition was observed
Experimental: as §1, §2, §3

[2] = tested on: C. tropicalis CBS 94 biofilm; assay: Biofilm formation assay, XTT; type: cell-based, Candida tropicalis; settings: 72 h, 37 °C, 5 % CO2, 1/8AIM medium, p ≤ 0.0001
[3] = tested on: C. albicans SC 5314 biofilm; assay: Biofilm formation assay, XTT; type: cell-based, Candida albicans; settings: 72 h, 37 °C, 5 % CO2, 1/8AIM medium, p ≤ 0.0001
[4] = tested on: C. albicans SZMC 1458 biofilm; assay: Biofilm formation assay, XTT; type: cell-based, Candida albicans; settings: 72 h, 37 °C, 5 % CO2, 1/8AIM medium, p ≤ 0.0001
[5] = tested on: C. albicans ATCC 10231 biofilm; assay: Biofilm formation assay, XTT; type: cell-based, Candida albicans; settings: 72 h, 37 °C, 5 % CO2, 1/8AIM medium, p ≤ 0.0001
C. tropicalis CBS 94 = assay: Yeast-hypha morphology, bright-field microscopy; type: cell-based, Candida tropicalis; settings: 0.78 µM peptide, 48 h, 1/8AIM medium
Description: (§4) As hyphae formation is an important virulence factor, we investigated how the broad range activity peptides, NCR335C17–33, NCR169C17–38 and NCR169C17–38ox affect the morphological switch of C. albicans ATCC 10231 and C. tropicalis between the hyphal and yeast growth forms at sub-lethal concentrations (Figure 1). […] However, not only the morphology changed, but the cell number also declined, particularly in the latter case.
(§5) To induce morphological change of C. albicans and C. tropicalis YNB medium was changed for eight-fold diluted AIM-V+AlbuMAX (BSA) medium (Gibco, Thermo Fisher Scientific, Dublin, Ireland) referred to as 1/8AIM in the text.
(§6) Bright-field microscopy. The morphology of C. albicans ATCC 10231 and C. tropicalis cells was examined after 48 h incubation with the selected peptides (NCR335C17–33 and NCR169C17–38) by Zeiss Axio Observer inverted microscope (Carl Zeiss AG, Jena, Germany). The concentration of the NCR335C17–33 was 1.56 and 3.12 µM, NCR169C17–38 1.56 or 3.12 µM while NCR169C17–38ox 0.78 or 3.12 µM, the initial cell concentration was set to 4 × 10^4 cell/mL. Cells cultivated without peptides were used as control.

C. albicans ATCC 10231 = assay: Yeast-hypha morphology, bright-field microscopy; type: cell-based, Candida albicans; settings: 3.12 µM peptide, 48 h, 1/8AIM medium, sub-lethal concentration
Description: as §4, §5, §6

C. auris = settings: C. auris; for reduction of MIC in the synergistic combination: compared with single use
Experimental: Amphotericin B, due to its high toxicity was not included in this assay.
The effects of the different combinations of fluconazole and NCR335C17–33, NCR169C17–38 or NCR169C17–38ox were determined by standard checkerboard titration method. The fluconazole was tested in a concentration range from 6.25 to 75 µM, NCR169C17–38 and NCR169C17–38ox from 0.78 to 12.50 µM, NCR335C17–33 from 1.56 to 25 µM. The initial cell concentration in each well was 4 × 10^4 cell/mL. After the incubation for 72 h at 30 °C, the optical density of the cultures was detected at 620 nm in SPECTROstar Nano plate reader (BMG LabTech, Offenburg, Germany). The inhibitory concentrations were determined for each compound alone and in combinations. The experiments were carried out at least three times. The effect of combinations was evaluated by fractional inhibitory concentration (FIC) index. FIC = FICA + FICB. FICA = (MICA in combination)/(MICA alone); FICB = (MICB in combination)/(MICB alone)

[6] = tested on: Candida tropicalis CBS 94; assay: microbe, parasite or virus in culture; type: cell-based; settings: micro-dilution, YNB medium, 4 × 10^4 cell/mL, 48 h, 30 °C, OD 620 nm; MIC = growth inhibition ≥90%; peptides 25 to 1.56 µM, fluconazole 200 to 0.78 µM; three biological repeats in triplicates; also: key: -: no growth inhibition was observed
Experimental: as §1, §2, §3

Candida albicans = settings: cited from earlier work
Description: In addition to bacteria, NCRs can also kill fungi. […] However, we noticed that, unlike the full sequence of NCR169, its C-terminal half was highly cationic (pI: 10.1) leading us to assume that this part may have antimicrobial activity.

| Compound | growth inhibition by fungistatic or fungicide action (Candida cells) | Minimal inhibitory concentration, Cau 0381 (Candida auris 0381) | Minimal inhibitory concentration, Cp CBS 604 [1] | concentration significantly inhibiting biofilm formation, relative to MIC [2] | concentration significantly inhibiting biofilm formation, relative to MIC [3] | concentration significantly inhibiting biofilm formation, relative to MIC [4] | concentration significantly inhibiting biofilm formation, relative to MIC [5] | further results |
| --- | --- | --- | --- | --- | --- | --- | --- | --- |
| CC[C@H](C)[C@H](NC(=O)[C@H](CCCCN)NC(=O)[C@H](Cc1ccccc1)NC(=O)[C@H](CC(C)C)NC(=O)[C@@H]1CCCN1C(=O)[C@H](CCCCN)NC(=O)[C@H](CCCCN)NC(=O)[C@H](CO)NC(=O)[C@@H](N)CCCCN)C(=O)N[C@@H](C)C(=O)N[C@@H](CCCCN)C(=O)N[C@@H](CS)C(=O)N[C@H](C(=O)N[C@@H](CCC(=O)O)C(=O)N[C@@H](CC(N)=O)C(=O)N[C@H](C(=O)N[C@@H](CS)C(=O)N[C@H](C(=O)N[C@@H](CC(C)C)C(=O)N[C@@H](C)C(=O)N[C@@H](Cc1ccc(O)cc1)C(=O)N[C@@H](CCCCN)C(N)=O)C(C)C)C(C)C)C(C)C [NCR169C17–38W10,20/A] (H-KSKKPLFKIAKCVENVCVLAYK-NH2; N-terminus assumed) | fungicidal | - | - | one-fourth of the MIC | half MIC | MIC | half MIC |  |
| CC[C@H](C)[C@H](NC(=O)[C@H](CCCCN)NC(=O)[C@H](Cc1ccccc1)NC(=O)[C@H](CC(C)C)NC(=O)[C@@H]1CCCN1C(=O)[C@H](CCCCN)NC(=O)[C@H](CCCCN)NC(=O)[C@H](CO)NC(=O)[C@@H](N)CCCCN)C(=O)N[C@@H](Cc1c[nH]c2ccccc12)C(=O)N[C@@H](CCCCN)C(=O)N[C@H]1CSSC[C@@H](C(=O)N[C@H](C(=O)N[C@@H](CC(C)C)C(=O)N[C@@H](Cc2c[nH]c3ccccc23)C(=O)N[C@@H](Cc2ccc(O)cc2)C(=O)N[C@@H](CCCCN)C(N)=O)C(C)C)NC(=O)[C@H](C(C)C)NC(=O)[C@H](CC(N)=O)NC(=O)[C@H](CCC(=O)O)NC(=O)[C@H](C(C)C)NC1=O [NCR169C17–38ox] (H-KSKKPLFKIWKCVENVCVLWYK-NH2; disulfide 12-17; N-terminus assumed) | fungicidal |  | - | half MIC | one-fourth of the MIC | half MIC | MIC | effect on hyphal/yeast growth form (C. tropicalis CBS 94): the only form of the culture; effect on hyphal growth (C. albicans ATCC 10231): completely inhibited the hyphal growth; Action (C. auris; NCR169C17–38 + NCR169C17–38ox): Synergism; reduction of MIC in the synergistic combination (C. auris; NCR169C17–38 + NCR169C17–38ox): 8 ×; Action (C. auris; fluconazole + NCR169C17–38ox): Synergism; reduction of MIC in the synergistic combination (C. auris; fluconazole + NCR169C17–38ox): 8 × |
| CC[C@H](C)[C@H](NC(=O)[C@@H]1CCCN1C(=O)[C@@H](NC(=O)[C@H](CS)NC(=O)[C@H](Cc1ccc(O)cc1)NC(=O)[C@H](CO)NC(=O)[C@H](CCCCN)NC(=O)[C@H](CCCNC(=N)N)NC(=O)[C@H](CS)NC(=O)[C@H](CCCNC(=N)N)NC(=O)[C@@H](NC(=O)[C@H](CC(N)=O)NC(=O)[C@H](C)NC(=O)[C@H](CCCNC(=N)N)NC(=O)[C@H](CCCNC(=N)N)NC(=O)[C@H](CC(C)C)NC(=O)[C@H](CCCCN)NC(=O)[C@@H]1CCCN1C(=O)[C@H](CS)NC(=O)[C@H](CC(=O)O)NC(=O)[C@H](CCCCN)NC(=O)[C@H](CC(N)=O)NC(=O)[C@@H](NC(=O)[C@H](CCCCN)NC(=O)[C@H](CS)NC(=O)[C@H](CC(=O)O)NC(=O)[C@H](CO)NC(=O)[C@H](CC(C)C)NC(=O)[C@@H](NC(=O)[C@H](CC(C)C)NC(=O)[C@H](CO)NC(=O)[C@H](Cc1ccccc1)NC(=O)[C@@H](N)Cc1c[nH]cn1)[C@@H](C)CC)[C@@H](C)O)C(C)C)C(C)C)C(N)=O [NCR335C1–33] (H-HFSLILSDCKTNKDCPKLRRANVRCRKSYCVPI-NH2; N-terminus assumed) | fungicidal | - |  |  |  |  |  | Minimal inhibitory concentration, Ct CBS 94 [6]: - |
| EDIGHIKYCGIVDDCYKSKKPLFKIWKCVENVCVLWYK [NCR169] |  |  |  |  |  |  |  | activity against C. albicans (Candida albicans; in the studied concentration range): inactive |
| RLNTTFRPLNFKMLRFWGQNRNIMKHRGQKVHFSLILSDCKTNKDCPKLRRANVRCRKSYCVPI [NCR335, 64 amino acid long cationic nodule specific cysteine-rich peptide of Medicago truncatula] |  |  |  |  |  |  |  | MIC (Candida albicans; C. albicans): 1.4 to 2.5 µM; minimal inhibitory concentrations (MIC), range over the listed cationic NCR peptides (Candida albicans; C. albicans): 1.4 to 10 µM |
